The nature of this data set: Acid dissociation constants (pKa) of the dopant compounds. Format: physicochemical. The note with it: read-out: acid dissociation constant (pKa).
On to `CCCCCCc1ccc(-c2ccc(C(=O)O)cc2)cc1` [Formula (I-1)], for which the pKa – broadly, the pH at which an ionisable group is half protonated – came to 7.68. The figure for `CCCCCCCCOc1ccc(-c2ccc(C(=O)O)cc2)cc1` [Formula (I-2)] is 7.66. The figure for `CCCCCCCCCCOc1ccc(-c2ccc(C(=O)O)cc2)cc1` [Formula (I-3)] is 9.77; for `CCCCCCCCCCCCOc1ccc(-c2ccc(C(=O)O)cc2)cc1` [Formula (I-4)] it is 8.74.
